In US20070249670A1, “Glycogen Phosphorylase Inhibitor Compounds and Pharmaceutical Compositions Thereof” (SMITHKLINE BEECHAM CORPORATION, priority 2004, published 2007):
pIC50: −log10 of the molar value.

Molecular target: T1, human liver glycogen phosphorylase a (HLGPa) (Homo sapiens, UniProt P06737)
T1 construct: creating a full-length cDNA fused at the 5′ end to codons for methionine-glycine-alanine-histidine; 6xHis tag (leader Met-Gly-Ala-His6-Gly-Gly) (N); made in house; host or cells: E. coli (bacterial expression plasmid pTXK1007LTev)
T1 sequence (P06737 2-847 limits assumed): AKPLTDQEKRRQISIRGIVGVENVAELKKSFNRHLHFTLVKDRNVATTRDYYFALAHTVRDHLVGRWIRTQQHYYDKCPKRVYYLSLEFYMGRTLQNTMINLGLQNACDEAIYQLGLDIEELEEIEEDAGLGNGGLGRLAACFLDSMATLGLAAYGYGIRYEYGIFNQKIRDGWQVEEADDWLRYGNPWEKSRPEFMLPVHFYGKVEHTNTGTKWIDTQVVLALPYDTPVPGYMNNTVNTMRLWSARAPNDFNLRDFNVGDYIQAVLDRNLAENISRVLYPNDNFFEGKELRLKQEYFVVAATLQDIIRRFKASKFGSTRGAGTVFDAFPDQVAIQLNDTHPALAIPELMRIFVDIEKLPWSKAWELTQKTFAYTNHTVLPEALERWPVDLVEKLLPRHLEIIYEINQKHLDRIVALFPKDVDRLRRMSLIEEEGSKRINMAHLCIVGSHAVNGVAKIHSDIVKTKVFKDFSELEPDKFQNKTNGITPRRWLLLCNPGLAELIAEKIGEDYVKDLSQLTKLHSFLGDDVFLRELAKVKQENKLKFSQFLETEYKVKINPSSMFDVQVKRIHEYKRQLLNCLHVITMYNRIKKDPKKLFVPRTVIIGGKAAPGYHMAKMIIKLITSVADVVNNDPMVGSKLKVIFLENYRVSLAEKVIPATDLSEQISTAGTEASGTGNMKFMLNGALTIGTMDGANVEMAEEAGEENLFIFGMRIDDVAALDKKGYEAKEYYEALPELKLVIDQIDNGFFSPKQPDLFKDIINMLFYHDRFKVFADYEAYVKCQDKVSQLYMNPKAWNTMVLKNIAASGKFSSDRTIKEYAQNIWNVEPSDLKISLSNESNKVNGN
Assay: Human liver glycogen phosphorylase a enzymatic activity assay (coupled, fluorescent resorufin readout, with and without 10 mM glucose)
Assay type: biochemical
Conditions: human liver glycogen phosphorylase a enzymatic activity assay

| pIC50 | SMILES |
| --- | --- |
| 5.35 | COC(=O)[C@@H](NC(=O)c1cc(C(C)C)sc1NC(=O)Nc1c(Cl)cccc1Cl)C1CCCCC1 [Example 395, methyl(2S)-cyclohexyl({[2-({[(2,6-dichlorophenyl)amino]carbonyl}amino)-5-(1-methylethyl)-3-thienyl]carbonyl}amino)ethanoate] |
| 4.85 | O=C(Nc1sc(Cc2ccccc2)cc1C(=O)O)Nc1c(Cl)cccc1Cl [Example 397, 2-({[(2,6-dichlorophenyl)amino]carbonyl}amino)-5-(phenylmethyl)-3-thiophenecarboxylic acid] |
| 5.51 | COC(=O)[C@@H](NC(=O)c1cc(Cc2ccccc2)sc1NC(=O)Nc1c(Cl)cccc1Cl)C1CCCCC1 [Example 398, methyl(2S)-cyclohexyl({[2-({[(2,6-dichlorophenyl)amino]carbonyl}amino)-5-(phenylmethyl)-3-thienyl]carbonyl}amino)ethanoate] |
| 5.17 | O=C(Nc1sc(Cc2ccccc2)cc1C(=O)N[C@H](C(=O)O)C1CCCCC1)Nc1c(Cl)cccc1Cl [Example 399] |
| 5.74 | O=C(Nc1cc(-c2ccncc2)sc1C(=O)O)Nc1c(Cl)cccc1Cl [Example 400, 3-({[(2,6-dichlorophenyl)amino]carbonyl}amino)-5-(4-pyridinyl)-2-thiophenecarboxylic acid] |
| 4.83 | COC(=O)[C@@H](NC(=O)c1sc(-c2ccncc2)cc1NC(=O)Nc1c(Cl)cccc1Cl)C1CCCCC1 [Example 401, methyl(2S)-cyclohexyl({[3-({[(2,6-dichlorophenyl)amino]carbonyl}amino)-5-(4-pyridinyl)-2-thienyl]carbonyl}amino)ethanoate] |
| 5.37 | O=C(Nc1cc(-c2cccnc2)sc1C(=O)O)Nc1c(Cl)cccc1Cl [Example 403, 3-({[(2,6-dichlorophenyl)amino]carbonyl}amino)-5-(3-pyridinyl)-2-thiophenecarboxylic acid] |
| 4.88 | COC(=O)[C@@H](NC(=O)c1sc(-c2cccnc2)cc1NC(=O)Nc1c(Cl)cccc1Cl)C1CCCCC1 [Example 404, methyl(2S)-cyclohexyl({[3-({[(2,6-dichlorophenyl)amino]carbonyl}amino)-5-(3-pyridinyl)-2-thienyl]carbonyl}amino)ethanoate] |
| 6.64 | O=C(Nc1cc(-c2cccnc2)sc1C(=O)N[C@H](C(=O)O)C1CCCCC1)Nc1c(Cl)cccc1Cl [Example 405] |
| 5.95 | N#Cc1ccc(-c2cc(NC(=O)Nc3c(Cl)cccc3Cl)c(C(=O)O)s2)cc1 [Example 406, 5-(4-cyanophenyl)-3-({[(2,6-dichlorophenyl)amino]carbonyl}amino)-2-thiophenecarboxylic acid] |
| 6.43 | N#Cc1ccc(-c2cc(NC(=O)Nc3c(Cl)cccc3Cl)c(C(=O)N[C@H](C(=O)O)C3CCCCC3)s2)cc1 [Example 407, (2S)-({[5-(4-cyanophenyl)-3-({[(2,6-dichlorophenyl)amino]carbonyl}amino)-2-thienyl]carbonyl}amino)(cyclohexyl)ethanoic acid] |
| 5.94 | COc1ccc(-c2cc(NC(=O)Nc3c(Cl)cccc3Cl)c(C(=O)O)s2)cc1 [Example 408, 3-({[(2,6-dichlorophenyl)amino]carbonyl}amino)-5-[4-(methyloxy)phenyl]-2-thiophenecarboxylic acid] |
| 7.03 | COc1ccc(-c2cc(NC(=O)Nc3c(Cl)cccc3Cl)c(C(=O)N[C@H](C(=O)O)C3CCCCC3)s2)cc1 [Example 409, (2S)-cyclohexyl[({3-({[(2,6-dichlorophenyl)amino]carbonyl}amino)-5-[4-(methyloxy)phenyl]-2-thienyl}carbonyl)amino]ethanoic acid] |
| 6.05 | O=C(Nc1cc(-c2ccccc2)sc1C(=O)O)Nc1c(Cl)cccc1Cl [Example 410, 3-({[(2,6-dichlorophenyl)amino]carbonyl}amino)-5-phenyl-2-thiophenecarboxylic acid] |
| 6.92 | O=C(Nc1cc(-c2ccccc2)sc1C(=O)N[C@H](C(=O)O)C1CCCCC1)Nc1c(Cl)cccc1Cl [Example 411, (2S)-cyclohexyl({[3-({[(2,6-dichlorophenyl)amino]carbonyl}amino)-5-phenyl-2-thienyl]carbonyl}amino)ethanoic acid] |
| 5.98 | COc1ccc(-c2cc(C(=O)O)c(NC(=O)Nc3c(Cl)cccc3Cl)s2)cc1 [Example 412, 2-({[(2,6-dichlorophenyl)amino]carbonyl}amino)-5-[4-(methyloxy)phenyl]-3-thiophenecarboxylic acid] |
| 4.97 | O=C(Nc1sc(Br)cc1C(=O)O)Nc1c(Cl)cccc1Cl [Example 413, 5-bromo-2-({[(2,6-dichlorophenyl)amino]carbonyl}amino)-3-thiophenecarboxylic acid] |

Same assay, conditions: human liver glycogen phosphorylase a; table does not say whether with or without 10 mM glucose

| pIC50 | SMILES |
| --- | --- |
| 5.70 | COc1ccc(-c2ccc(C(=O)O)c(NC(=O)Nc3c(C)cc(C)cc3C)c2)cc1 [Example 380, 4′-(methyloxy)-3-({[(2,4,6-trimethylphenyl)amino]carbonyl}amino)-4-biphenylcarboxylic acid] |
| 5.47 | COc1ccc(-c2ccc(C(=O)O)c(NC(=O)Nc3c(Cl)cc(OC(F)(F)F)cc3Cl)c2)cc1 [Example 381, 3-{[({2,6-dichloro-4-[(trifluoromethyl)oxy]phenyl}amino)carbonyl]amino}-4′-(methyloxy)-4-biphenylcarboxylic acid] |
| 5.93 | O=C(Nc1sc(-c2ccccc2)cc1C(=O)O)Nc1c(Cl)cccc1Cl [Example 382, 2-({[(2,6-dichlorophenyl)amino]carbonyl}amino)-5-phenyl-3-thiophenecarboxylic acid] |
| 5.63 | COC(=O)[C@@H](NC(=O)c1cc(-c2ccccc2)sc1NC(=O)Nc1c(Cl)cccc1Cl)C1CCCCC1 [Example 383, methyl(2S)-cyclohexyl({[2-({[(2,6-dichlorophenyl)amino]carbonyl}amino)-5-phenyl-3-thienyl]carbonyl}amino)ethanoate] |
| 6.64 | O=C(Nc1sc(-c2ccccc2)cc1C(=O)N[C@H](C(=O)O)C1CCCCC1)Nc1c(Cl)cccc1Cl [Example 384, (2S)-cyclohexyl({[2-({[(2,6-dichlorophenyl)amino]carbonyl}amino)-5-phenyl-3-thienyl]carbonyl}amino)ethanoic acid] |
| 5.94 | O=C(Nc1cc(-c2ccc(F)cc2)sc1C(=O)O)Nc1c(Cl)cccc1Cl [Example 385, 3-({[(2,6-dichlorophenyl)amino]carbonyl}amino)-5-(4-fluorophenyl)-2-thiophenecarboxylic acid] |
| 5.37 | COC(=O)[C@@H](NC(=O)c1sc(-c2ccc(F)cc2)cc1NC(=O)Nc1c(Cl)cccc1Cl)C1CCCCC1 [Example 386, methyl(2S)-cyclohexyl({[3-({[(2,6-dichlorophenyl)amino]carbonyl}amino)-5-(4-fluorophenyl)-2-thienyl]carbonyl}amino)ethanoate] |
| 6.37 | O=C(Nc1cc(-c2ccc(F)cc2)sc1C(=O)N[C@H](C(=O)O)C1CCCCC1)Nc1c(Cl)cccc1Cl [Example 387, (2S)-cyclohexyl({[3-({[(2,6-dichlorophenyl)amino]carbonyl}amino)-5-(4-fluorophenyl)-2-thienyl]carbonyl}amino)ethanoic acid] |
| 4.71 | Cc1cc(C(=O)O)c(NC(=O)Nc2c(Cl)cccc2Cl)s1 [Example 388, 2-({[(2,6-dichlorophenyl)amino]carbonyl}amino)-5-methyl-3-thiophenecarboxylic acid] |
| 4.81 | COC(=O)[C@@H](NC(=O)c1cc(C)sc1NC(=O)Nc1c(Cl)cccc1Cl)C1CCCCC1 [Example 389, methyl(2S)-cyclohexyl({[2-({[(2,6-dichlorophenyl)amino]carbonyl}amino)-5-methyl-3-thienyl]carbonyl}amino)ethanoate] |
| 4.76 | Cc1cc(C(=O)N[C@H](C(=O)O)C2CCCCC2)c(NC(=O)Nc2c(Cl)cccc2Cl)s1 [Example 390, (2S)-cyclohexyl({f[2-({[(2,6-dichlorophenyl)amino]carbonyl}amino)-5-methyl-3-thienyl]carbonyl}amino)ethanoic acid] |
| 5.17 | O=C(Nc1sc(-c2ccccc2)cc1C(=O)O)Nc1c(Cl)cc(Cl)cc1Cl [Example 391, 5-phenyl-2-({[(2,4,6-trichlorophenyl)amino]carbonyl}amino)-3-thiophenecarboxylic acid] |
| 5.88 | COC(=O)[C@@H](NC(=O)c1cc(-c2ccccc2)sc1NC(=O)Nc1c(Cl)cc(Cl)cc1Cl)C1CCCCC1 [Example 392, methyl(2S)-cyclohexyl({[5-phenyl-2-({[(2,4,6-trichlorophenyl)amino]carbonyl}amino)-3-thienyl]carbonyl}amino)ethanoate] |
| 4.72 | CC(C)c1cc(C(=O)O)c(NC(=O)Nc2c(Cl)cccc2Cl)s1 [Example 394, 2-({[(2,6-dichlorophenyl)amino]carbonyl}amino)-5-(1-methylethyl)-3-thiophenecarboxylic acid] |
